Source: PubChem BioAssay (NCI)
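Following 48 hours of exposure in 96-well plates, responses at five concentrations were used to interpolate endpoints linearly. Abbreviation: GI50, concentration required for 50% inhibition of growth. TGI is the concentration that stops growth completely.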

Key:
Assay in all cases: DTP human tumour cell line panel, 48 h
[1] = test system: SK-MEL-28 melanoma
[2] = test system: SK-OV-3 ovarian
[3] = test system: NCI/ADR-RES ovarian
[4] = test system: UO-31 renal
[5] = test system: DU-145 prostate
[6] = test system: RPMI-8226 leukemia
[7] = test system: OVCAR-4 ovarian
[8] = test system: OVCAR-3 ovarian
[9] = test system: NCI-H460 lung
[10] = test system: NCI-H522 lung
[11] = test system: OVCAR-8 ovarian
[12] = test system: U251 CNS
[13] = test system: KM12 colon
[14] = test system: ACHN renal
[15] = test system: SR leukemia
[16] = test system: CAKI-1 renal
[17] = test system: COLO 205 colon
[18] = test system: SW-620 colon
[19] = test system: PC-3 prostate
[20] = test system: BT-549 breast
[21] = test system: SF-268 CNS
[22] = test system: K-562 leukemia
[23] = test system: SK-MEL-5 melanoma
[24] = test system: LOX IMVI melanoma
[25] = test system: A498 renal
[26] = test system: HCC-2998 colon
[27] = test system: RXF 393 renal
[28] = test system: HOP-62 NSCLC
[29] = test system: IGROV1 ovarian
[30] = test system: TK-10 renal
[31] = test system: SNB-75 CNS
[32] = test system: HCT-15 colon
[33] = test system: MCF7 breast
[34] = test system: SNB-19 CNS
[35] = test system: SF-295 CNS
[36] = test system: SN12C renal
[37] = test system: MDA-MB-435
[38] = test system: T-47D breast
[39] = test system: A549 NSCLC
[40] = test system: NCI-H226 lung
[41] = test system: SF-539 CNS
[42] = test system: MALME-3M melanoma
[43] = test system: MDA-MB-468 breast
[44] = test system: HOP-92 NSCLC
[45] = test system: MDA-MB-231 breast
[46] = test system: M14 melanoma
[47] = test system: HT29 colon
[48] = test system: OVCAR-5 ovarian
[49] = test system: NCI-H23 lung
[50] = test system: EKVX NSCLC
[51] = test system: MOLT-4 leukemia
[52] = test system: UACC-62 melanoma
[53] = test system: HS 578T breast
[54] = test system: SK-MEL-2 melanoma
[55] = test system: HL-60(TB) leukemia
[56] = test system: UACC-257 melanoma

**Q.** Which results are given for `CC(=O)Nc1ccc(-c2cn(-c3cccc(C(=O)Nc4ccc(Cl)c(C(F)(F)F)c4)c3)nn2)cn1`?
**A.** GI50 [1]: 1.35 µM; TGI [1]: 2.82 µM; GI50 [2]: 2.01 µM; TGI [2]: 5.17 µM; GI50 [3]: 3.5 µM; TGI [3]: 17.8 µM; GI50 [4]: 1.64 µM; TGI [4]: 3.54 µM; GI50 [5]: 2.83 µM; TGI [5]: 8.43 µM; GI50 [6]: 2.5 µM; TGI [6]: 34.7 µM; GI50 [7]: 2.53 µM; TGI [7]: 7.39 µM; GI50 [8]: 1.92 µM; TGI [8]: 3.62 µM; GI50 [9]: 1.5 µM; TGI [9]: 3.05 µM; GI50 [10]: 1.71 µM; TGI [10]: 3.6 µM; GI50 [11]: 2.02 µM; TGI [11]: 4.66 µM; GI50 [12]: 1.85 µM; TGI [12]: 3.59 µM; GI50 [13]: 1.81 µM; TGI [13]: 6.37 µM; GI50 [14]: 1.93 µM; TGI [14]: 4.04 µM; GI50 [15]: 1.86 µM; TGI [15]: > 100 µM; GI50 [16]: 1.78 µM; TGI [16]: 3.54 µM; GI50 [17]: 1.47 µM; TGI [17]: 3.45 µM; GI50 [18]: 1.57 µM; TGI [18]: 3.29 µM; GI50 [19]: 1.83 µM; TGI [19]: 5.21 µM; GI50 [20]: 1.69 µM; TGI [20]: 3.5 µM; GI50 [21]: 2.3 µM; TGI [21]: 5.73 µM; GI50 [22]: 1.32 µM; TGI [22]: 5.89 µM; GI50 [23]: 1.9 µM; TGI [23]: 4.3 µM; GI50 [24]: 1.39 µM; TGI [24]: 2.72 µM; GI50 [25]: 2.9 µM; TGI [25]: 5.46 µM; GI50 [26]: 1.87 µM; TGI [26]: 4.02 µM; GI50 [27]: 1.69 µM; TGI [27]: 3.5 µM; GI50 [28]: 1.67 µM; TGI [28]: 3.49 µM; GI50 [29]: 1.7 µM; TGI [29]: 3.36 µM; GI50 [30]: 2.3 µM; TGI [30]: 4.68 µM; GI50 [31]: 1.61 µM; TGI [31]: 4.47 µM; GI50 [32]: 2.02 µM; TGI [32]: 4.28 µM; GI50 [33]: 1.82 µM; TGI [33]: 4.12 µM; GI50 [34]: 2.24 µM; TGI [34]: 4.7 µM; GI50 [35]: 1.51 µM; TGI [35]: 2.91 µM; GI50 [36]: 1.77 µM; TGI [36]: 3.49 µM; GI50 [37]: 1.39 µM; TGI [37]: 3.05 µM; GI50 [38]: 2.47 µM; TGI [38]: 7.93 µM; GI50 [39]: 1.86 µM; TGI [39]: 3.86 µM; GI50 [40]: 1.87 µM; TGI [40]: 3.78 µM; GI50 [41]: 1.44 µM; TGI [41]: 2.82 µM; GI50 [42]: 0.559 µM; TGI [42]: 1.95 µM; GI50 [43]: 1.45 µM; TGI [43]: 3.02 µM; GI50 [44]: 1.58 µM; TGI [44]: 3.6 µM; GI50 [45]: 1.09 µM; TGI [45]: 2.39 µM; GI50 [46]: 1.12 µM; TGI [46]: 3.46 µM; GI50 [47]: 1.43 µM; TGI [47]: 3.09 µM; GI50 [48]: 1.93 µM; TGI [48]: 4.86 µM; GI50 [49]: 1.52 µM; TGI [49]: 2.98 µM; GI50 [50]: 1.89 µM; TGI [50]: 3.92 µM; GI50 [51]: 2.62 µM; TGI [51]: 7.99 µM; GI50 [52]: 1.29 µM; TGI [52]: 2.79 µM; GI50 [53]: 2.03 µM; TGI [53]: 7.01 µM; GI50 [54]: 1.65 µM; TGI [54]: 3.78 µM; GI50 [55]: 0.824 µM; TGI [55]: > 100 µM; GI50 [56]: 1.56 µM; TGI [56]: 3.5 µM
